From patent publication US20080194609A1, “Chemical Compound and Its Use” (Bayer HeathCare AG, priority 2004, published 2008)
Read-outs that look alike come from different tables or passages of the source.

How the values were obtained:
[1] = target: T1, CETP (enriched CETP fraction obtained from human plasma) (Homo sapiens, UniProt P11597); assay: CETP fluorescence test with enriched CETP; type: biochemical; conditions: 37° C., 4 hours, CE transfer between liposomes
T1 construct: CETP is obtained in partially purified form from human plasma; from tissue; host or cells: human plasma (d>1.21 g/ml bottom fraction; Phenyl-Sepharose, CM-Sepharose, Mono Q)
T1 sequence (P11597 18-493): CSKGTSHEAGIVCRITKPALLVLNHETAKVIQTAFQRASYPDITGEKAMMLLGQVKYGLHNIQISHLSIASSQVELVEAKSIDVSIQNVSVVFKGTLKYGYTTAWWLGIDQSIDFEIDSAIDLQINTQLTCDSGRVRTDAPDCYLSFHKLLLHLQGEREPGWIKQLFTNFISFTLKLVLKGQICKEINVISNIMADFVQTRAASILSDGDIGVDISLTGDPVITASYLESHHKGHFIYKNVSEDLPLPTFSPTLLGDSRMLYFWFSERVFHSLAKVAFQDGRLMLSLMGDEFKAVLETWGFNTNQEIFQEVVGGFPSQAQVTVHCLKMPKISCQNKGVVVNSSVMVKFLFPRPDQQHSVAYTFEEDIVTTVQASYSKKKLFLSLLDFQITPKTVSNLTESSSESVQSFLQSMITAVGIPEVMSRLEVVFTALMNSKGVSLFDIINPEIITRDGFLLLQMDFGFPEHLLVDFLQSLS
Protocol: (§1) CETP is obtained in partially purified form from human plasma by differential centrifugation and column chromatography and used for the test. To this end, human plasma is adjusted to a density of 1.21 g per ml using NaBr and centrifuged at 4° C. at 50 000 rpm for 18 h. The bottom fraction (d>1.21 g/ml) is applied to a Sephadex® Phenyl-Sepharose 4B (Pharmacia) column, washed with 0.15 M NaCl/0.001 M tris-HCl pH 7.4 and then eluted with distilled water. The CETP-active fractions are pooled, dialyzed against 50 mM sodium acetate pH 4.5 and applied to a CM-Sepharose® column (Pharmacia). The mixture is then eluted using a linear gradient (0-1 M NaCl). The pooled CETP fractions are dialyzed against 10 mM tris/HCl pH 7.4 and then further purified by chromatography on a Mono Q® column (Pharmacia).
Measurement of the CETP-catalyzed transfer of a fluorescent cholesterol ester between liposomes [modified according to the procedure of Bisgaier et al., J. Lipid Res. 34, 1625 (1993)]: […]
The change in the fluorescence at 485/535 nm is a measure of the CE transfer; the inhibition of the transfer in comparison to the control batch without substance is determined. […]

CETP in human plasma = target: T2, CETP in human plasma (Homo sapiens, UniProt P11597); assay: CETP fluorescence test with human plasma; type: biochemical; conditions: 86% v/v human plasma, 37° C., 24 h
T2 construct: tissue Sigma P9523; host or cells: human plasma (purchased, unfractionated)
T2 sequence (P11597 18-493): T1 sequence (P11597 18-493)
Protocol: For the production of the donor liposomes, 1 mg of cholesteryl 4,4-difluoro-5,7-dimethyl-4-bora-3a,4a-diaza-s-indacene-3-dodecanoate (cholesteryl BODIPY® FL C1-2, Molecular Probes) is dissolved in 600 μl of dioxane with 5.35 mg of triolein and 6.67 mg of phosphatidylcholine with gentle warming in an ultrasonic bath and this solution is added very slowly with ultrasonication to 63 ml of 50 mM tris/HCl, 150 mM NaCl, 2 mM EDTA buffer pH 7.3 at room temperature. The suspension is then ultrasonicated under an N2 atmosphere for 30 minutes in the Branson ultrasonic bath at about 50 watts, the temperature being kept at about 20° C.
6 μl (12% v/v) of donor liposomes and 1 μl (2% v/v) of a solution of the substance to be investigated in DMSO are added to 42 μl (86% v/v) of human plasma (Sigma P9523), and the mixture is incubated at 37° C. for 24 h.
The change in the fluorescence at 510/520 nm (gap width 2.5 nm) is a measure of the CE transfer; the inhibition of the transfer in comparison to the control batch without substance is determined. […]

CETP [2] = target: T3, CETP (Homo sapiens, UniProt P11597); assay: Ex vivo activity on transgenic hCETP mice (CETP activity in the serum); parameters: from tissue; host or cells: serum of transgenic hCETP mice (host Mus musculus) after oral dosing; conditions: mouse, 3 mg/kg oral, cholesteryl ester transport
T3 sequence (P11597 18-493): T1 sequence (P11597 18-493)
Protocol: 10 μl of buffer and 2 μl of serum are added to 80 μl of test mix, and the mixture is incubated at 37° C. for 4 h.
The change in the fluorescence at 485/535 nm is a measure for the CE transfer; the inhibition of the transfer in comparison to the control batch without substance is determined.
To test for CETP-inhibitory activity, the substances are administered orally using a stomach tube to transgenic hCETP mice bred in-house [Dinchuk et al. BBA 1295-301 (1995)]. To this end, male animals are randomly assigned to groups having an equal number of animals, as a rule n=4, one day before the start of the experiment. Before administration of the substance, blood is taken from each mouse by puncture of the retro-orbital venous plexus for the determination of its basal CETP activity in the serum (T1). The test substance is then administered to the animals using the stomach tube. […]
After termination of the clotting, the blood samples are centrifuged and the serum is removed by pipette. For the determination of the CETP activity, the cholesteryl ester transport over 4 h is determined. […]
The differences in the cholesteryl ester transport [pM CE/h (T2)−pM CE/h (T1)] are calculated for each animal and averaged in the groups. […]

CETP [3] = target: T3, CETP; assay: CETP-SPA test; type: biochemical; parameters: CETP is obtained in partially purified form from human plasma; from tissue; host or cells: human plasma (d>1.21 g/ml bottom fraction; Phenyl-Sepharose, CM-Sepharose, Mono Q); conditions: transfer of 3H-cholesterol ester from human HDL to biotinylated LDL, 37° C., 18 h
Protocol: as §1
50 ml of fresh human EDTA plasma is adjusted to a density of 1.12 using NaBr and centrifuged at 4° C. in a Ty 65 rotor at 50 000 rpm for 18 h. The upper phase is used for the obtainment of cold LDL. […]
For testing of the CETP activity, the transfer of ^3H-cholesterol ester from human HD lipoproteins to biotinylated LD lipoproteins is measured. The reaction is ended by addition of streptavidin-SPA® beads (Amersham) and the transferred radioactivity is determined directly in a liquid scintillation counter. […]

IC50 [1] | IC50 (CETP in human plasma) | inhibition at 3 mg/kg (CETP [2]; serum taken 16 h after administration, read-out: % inhibition at 3 mg/kg 16 h) | inhibition at 3 mg/kg (CETP [2]; serum taken 24 h after administration, read-out: % inhibition at 3 mg/kg 24 h) | IC50 (CETP [3]) | Structure (SMILES)
17 nM | 80 nM | 74% | 66% | 32 nM | O[C@H]1CC2(CC2)Cc2nc(C3CCCC3)c([C@@H](F)c3ccc(C(F)(F)F)cc3)c(C3CCCCC3)c21 [Example 1]
15 nM | 40 nM | – | – | 24 nM | O[C@H]1CC2(CC2)Cc2nc(C3CCCC3)c([C@@H](F)c3ccc(C(F)(F)F)cc3)c(C3CCCC3)c21 [Example 1]
